Target: T1, Microsomal glutathione transferase 1 (MGST1) (Rattus norvegicus, UniProt P08011)
T1 sequence (P08011 2-155): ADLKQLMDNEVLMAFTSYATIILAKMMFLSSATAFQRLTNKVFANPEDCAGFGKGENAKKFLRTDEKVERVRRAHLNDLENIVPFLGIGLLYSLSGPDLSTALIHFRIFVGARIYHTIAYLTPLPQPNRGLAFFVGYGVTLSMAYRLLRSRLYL
Experiment: equilibrium dialysis
Assay type: binding

## N[C@@H](CCC(=O)N[C@@H](CSc1ccc([N+](=O)[O-])cc1[N+](=O)[O-])C(=O)NCC(=O)O)C(=O)O [GSDNB, 1-S-glutathionyl-2,4-dinitrobenzene]
  Kd: 320 ± 50 µM
